Experimental data published in patent US20230103965A1, “NOVEL ACTIVATORS OF THE LIPIDATING TRANSPORTER ATP BINDING CASSETTE PROTEIN TYPE 1 (AB-CA1) AND THERAPEUTIC USES THEREOF” (RAMOT AT TEL-AVIV UNIVERSITY LTD., priority 2020, published 2023).
pEC50, pKd: −log10 of the molar value.

Assays:
[1] = test system: apoE4 TR mice; test: Intraventricular Alzet pump administration to apoE4 TR mice, 11 days; type: in vivo; conditions: intraventricular pump 11 days, vs ACSF
Experimental: These experiments utilized the Alzet osmotic pump to administer labeled compounds #10 and N1 into the ventricles of apoE4 TR mice. The Alzet pumps administered 0.25 μl/hr of the compounds for 11 days. The reagents concentrations were […] for compounds #10 and N1, respectively, reaching estimated concentrations of 200 μM and 250 μM in the CSF. As control groups, apoE3 and apoE4 mice injected with artificial cerebrospinal fluid were used. Four groups, each containing 5 mice were used in the experiments. The total SDS levels in the different groups were measured. […] FIG. 16 depicts the results of the high molecular weight complexes indicating the increase in the apoE4 treated with compounds #10 and N1.
High AT180 corresponds to hyperphosphorylated tau which is pathological.

[2] = test system: Rodent Astrocytes; test: In situ Aβ plaque digestion by apoE4 astrocytes (orthogonal assay); type: cell-based
Experimental: FIG. 7: Schematic representation of assay measuring in situ A$ plaque degradation by apoE3 and apoE4 astrocytes. The assay is designed to measure the ability of astrocytes to digest senile plaques from brain slides of APP mice, which is impaired in apoE4 expressing astrocytes.
FIG. 9: Activity of test compounds (HTS hits) in the plaque digestion assay. Positive control is CS-6253 (25 μg/ml). Test compound concentration is 50 μM.
In situ Aβ plaque degradation by apoE3 and apoE4 astrocytes. This assay is based on measurement of the ability of the astrocytes to clear Aβ plaques following their co-incubation with brain sections of 5×FAD mice, which contain Aβ plaques. Accordingly, 20 μm coronal frozen brain sections were prepared from 9-13-month-old 5×FAD mice using cryostat and placed on glass slides, 3-4 consecutive sections in each slide. The slides were kept at −80° C. until used. At the beginning of the experiment, the slices were incubated for 48 hr at 37° C. with apoE3 and apoE4 astrocytes (10^5 cells in 100 μl medium per slice) in the presence of 50 μM, or otherwise indicated concentrations, of the HTS hits. The slides were gently placed in round petri dishes with thick wet paper, surrounding the slides. PapPen was used to draw liquid repellent borders of the sections to avoid spillage of coating out of the slides. The slides were gently washed of all containing remains by placing them in PBS for 10 minutes, and were then fixated with 4% PFA for 10 minutes, followed by 0.1% Triton solution for 10 minutes. The slides were then incubated with blocking solution (8% Horse Serum, 0.3% Triton, 1 gr/ml BSA, 0.02% Sodium Azide in PBS) for 30 minutes after which they were immunohistochemically stained with primary anti-PAmyloid (6E10) antibody at a dilution of 1:750 in blocking solution for 1 hr at room temperature. This was then followed by washing (×5 with PBST) and incubation with the secondary antibody (Alexa Fluor® 488 donkey α-mouse IgG, A-21202 at dilution of 1:250 at room temperature for 45 minutes. Nuclei were stained with DAPI (Vektashield, Burlingame, Calif.; H-1200). Analysis of the Aβ plaque burden was performed as percentage of the area covered in plaques using the ImageJ software.
(i) Orthogonal assay which monitors the extent to which the hits can reverse the impaired ability of apoE4 astrocytes to digest Aβ senile plaques in vitro. The principle of this orthogonal assay is presented in FIGS. 7 & 8 [17], whereas the activity of the HTS hits in this assay is presented in FIG. 9.

[3] = test system: Human Astrocytes; test: Cholesterol efflux (apoE4 lipidation) assay, BODIPY-cholesterol translocation to apoE4; type: cell-based; conditions: Astrocyte, Human astrocytes, efflux to apoE4; for pEC50: Table 4
Experimental: Cholesterol efflux assay in HTS. CCF-STTG1 cells were plated in 384-well plates containing 50 μL/well RPMI supplemented with 10% FBS at a density of 5×10^3 cells/well, using a Multidrop 384 Reagent Dispenser (Thermo Scientific), and incubated for 48 hr. Cells were washed twice with 50 μl PBS using an EL406 Microplate Washer Dispenser (BioTek, Winooski, Vt., USA) before being labeled with 50 μl of 10 μM BODIPY-cholesterol+100 μM cyclodextrin (CD) in RPMI 1640 medium containing 0.2% BSA. The labeling medium was added using in a Washer Dispenser II (GNF, San Diego, Calif., USA). Plates were transferred automatically to a Liconic incubator (Mauren Principality of Liechtenstein) and incubated for 24 h. Subsequently, cells were washed twice as described above to remove external cholesterol. Next, 50 μl of the efflux medium was added, which contained recombinant apoE4 at a concentration of 40 μg/ml in transparent RPMI 1640 (no phenol red), again using Washer Dispenser II (GNF, San Diego, Calif., USA). The positive control contained the ABCA1 activator, CS-6253 (120 μg/ml) in addition to the acceptor (apoE4). After 7 hr of efflux, the medium was transferred to new plates, using the Bravo Automated Liquid Handling system (Agilent, Santa Clara, Calif., USA). Fluorescence polarization (FP) and fluorescence intensity (FI) of the medium were measured in a PheraStar FS plate reader (BMG Labtech, Ortenberg, Germany).
The apoE4 lipidation Assay is based on measurements of the ability of astrocytes to translocate fluorescently labelled cholesterol to recombinant non lipidated apoE4 and on the extent to which this effect is enhanced by treatment with each of the screened compounds (FIG. 2, 3). This assay is an adaptation of previous studies of cholesterol translocation from labelled astrocytes to external acceptors such as apoE4 [16], except that in order to differentiate between gene expression related effects and direct biochemical effects of the hits on ABCA1, the incubations of the HTS with the cells was limited to 8 hours. The extent to which the cells secret the labelled cholesterol and transfer it to non-lipidated apoE4 was determined by regular fluorescence as well as by fluorescence polarization microscopy. The latter technique in this context is used due to its sensitivity to particle size which decreases the background signal by differentiating between free and particle bound released cholesterol.
The assay was characterized biochemically and it was shown that translocation of labelled cholesterol to apoE4 is time and concentration dependent (FIG. 4) and was increased by the positive control ABCA1 agonistic 26mer peptide CS-6253 [4] (FIG. 5). The assay was used for high throughput screening (HTS) and selection of positive hits. 50,000 compounds from commercially available libraries were screened utilizing the double criteria of a signal greater than 3 standard deviations from the mean of all of the screened compounds, and being similar or greater than the apoE4 lipidation driven by the ABCA1 agonistic peptide CS-6253. Additional criteria included the tier drug ability value with tier 1 being best and tier 3 being least suitable, as well as a hydrophobicity value of 2<log P<5 value. This yielded 14 hits, designated Compounds #1-#14 (FIG. 6).

[4] = test system: apoE4 astrocytic cell line; test: Cellular viability / cytotoxicity of the hits; type: cell-based, Rodent; conditions: 50 μM
Experimental: FIG. 10: Effects of test compounds (HTS hits) on cellular viability. Experiments were performed on apoE4 astrocytic cell line in the presence of 50 μM of the indicated compounds. Viability was measured microscopically and by measurements of total cellular protein. (ii) Measurements of cytotoxicity of the hits.

[5] = biological target: T1, ECD1 of ABCA1 (Homo sapiens, UniProt O95477); test: Microscale thermophoresis (MST) binding, label free protein; conditions: unlabelled ECD1
T1 construct: The proteins used in these experiments were Extra-Cellular Domain 1 (ECD1) of ABCA1 and Extra-Cellular Domain 2 (ECD2); purchased Biomatick
T1 sequence (O95477 43-639 limits assumed): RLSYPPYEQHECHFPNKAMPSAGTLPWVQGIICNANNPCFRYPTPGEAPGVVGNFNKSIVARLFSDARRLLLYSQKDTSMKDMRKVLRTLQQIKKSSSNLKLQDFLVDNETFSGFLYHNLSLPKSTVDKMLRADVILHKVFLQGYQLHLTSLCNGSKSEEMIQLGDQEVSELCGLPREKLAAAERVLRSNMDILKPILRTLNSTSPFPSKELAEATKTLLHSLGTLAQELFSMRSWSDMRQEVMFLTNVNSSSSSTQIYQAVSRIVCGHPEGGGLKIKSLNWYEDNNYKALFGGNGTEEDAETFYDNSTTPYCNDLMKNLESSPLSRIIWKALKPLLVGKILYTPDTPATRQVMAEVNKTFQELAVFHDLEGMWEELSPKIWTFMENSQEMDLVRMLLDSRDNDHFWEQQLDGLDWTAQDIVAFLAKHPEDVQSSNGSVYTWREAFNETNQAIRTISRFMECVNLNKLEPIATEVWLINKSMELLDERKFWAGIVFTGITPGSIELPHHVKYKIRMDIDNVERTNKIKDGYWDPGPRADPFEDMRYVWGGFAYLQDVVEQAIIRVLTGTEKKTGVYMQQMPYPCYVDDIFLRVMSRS
Experimental: Microscale thermophoresis (MST) measurements. MST measurements of the binding of the HTS hits to the extracellular domain (ECD) of ABCA1 were performed by two complimentary methods utilizing either fluorescently labeled proteins or the endogenous fluorescence of unlabeled proteins. This was pursued as follows:
The experiments were performed with the purified extracellual domains 1 (ECD1) and 2 (ECD2) of ABCA1 [18]. Two complementary MST tests were performed, in which either the proteins were labeled with a fluorescence moiety or the endogenous fluorescence of the unlabeled proteins was monitored).

With Cc1cc(C)c(/C=C2\C(=O)Nc3ccccc32)[nH]1 [Hit #10] the “Hippocampal phosphorylated tau (AT180)” value [1] was “reversed the pathology”, the “Levels of high molecular weight lipidated ApoE4 (native gels)” value [1] was “increase” and the “Total hippocampal ApoE4 levels (total SDS levels)” value [1] was “reversed the effect”. For the same compound, the “Plaque digestion assay (50 μM) Rodent Astrocytes” value ([2]; Table 2) was 182%, the “Plaque digestion assay (50 μM) Rodent Astrocytes” value ([2]; Table 4) was 182% and the EC50 ([3]; Table 2) was over 44.8 µM. For the same compound, the pEC50 [3] was under 4.35, the “Viability Rodent Astrocytes” value ([4]; Table 2) was “Normal” and the “Viability Rodent Astrocytes” value ([4]; Table 4) was “Normal”.

With Clc1cc(N2CCOCC2)c2nonc2c1 [Hit #99] the pEC50 [3] was under 4.35, the “Binding to ECD1 (Label free MST) Amplitude” value [5] was 24.15 a.u and the pKd [5] was 4.23.

With O=C(O)CSc1cc(Cl)c2nonc2c1[N+](=O)[O-] [Hit N1] the “Hippocampal phosphorylated tau (AT180)” value [1] was “reversed the pathology”, the “Levels of high molecular weight lipidated ApoE4 (native gels)” value [1] was “increase” and the “Total hippocampal ApoE4 levels (total SDS levels)” value [1] was “reversed the effect”.
